Assay results reported in patent US20250205162A1, “SYSTEMS AND METHODS FOR SMALL MOLECULE ENCAPSULATION” (Tecton Group, LLC, priority 2022, published 2025).

Legend:
[1] = humans; cited from earlier work
[2] = pH in water; assay type: physicochemical; settings: aqueous solution

pH in water [2]	Compound	safe daily use [1]
–	Cn1c(=O)c2c(n(C)c1=O)n(C)c(=O)n2C [TH, theacrine]	up to 300 mg/day
4.5	C[C@@H](O)CC(=O)OC(CO)CO [KM, 1,3 Dihydroxypropan-2-yl (R)-3-hydroxybutanoate]	–
4.0	nicotinamide riboside [NR]	–
